Data from the NIST ThermoML archive (doi:10.1016/j.tca.2015.01.022).
Numbers after ± are expanded uncertainties.

Experiment: molar heat capacity at constant pressure
Conditions: 101.33 kPa, Glass, Small (less than 1 g) adiabatic calorimetry

CCOS(=O)(=O)[O-].CCn1cc[n+](C)c1 [1-ethyl-3-methylimidazolium ethyl sulfate]
Conditions | molar heat capacity at constant pressure [J/K/mol]
5 K | 1.02 ± 0.04
7.21 K | 2.892 ± 0.072
7.52 K | 3.232 ± 0.078
7.89 K | 3.662 ± 0.086
8.26 K | 4.116 ± 0.093
8.64 K | 4.61 ± 0.1
9.02 K | 5.113 ± 0.11
9.4 K | 5.662 ± 0.12
9.78 K | 6.226 ± 0.13
10 K | 6.55 ± 0.14
10.17 K | 6.81 ± 0.14
10.66 K | 7.609 ± 0.15
11.26 K | 8.587 ± 0.16
11.87 K | 9.634 ± 0.17
12.47 K | 10.71 ± 0.18
13.09 K | 11.85 ± 0.19
13.7 K | 13.01 ± 0.2
14.32 K | 14.24 ± 0.21
14.95 K | 15.52 ± 0.22
15 K | 15.63 ± 0.23
15.69 K | 17.06 ± 0.23
16.54 K | 18.87 ± 0.24
17.39 K | 20.71 ± 0.25
18.24 K | 22.56 ± 0.25
19.1 K | 24.43 ± 0.26
19.96 K | 26.32 ± 0.26
20 K | 26.45 ± 0.27
21.16 K | 29.04 ± 0.28
22.71 K | 32.61 ± 0.3
24.26 K | 36.22 ± 0.31
25 K | 37.93 ± 0.32
25.81 K | 39.86 ± 0.33
27.37 K | 43.43 ± 0.34
28.95 K | 47.02 ± 0.35
30 K | 49.4 ± 0.32
30.54 K | 50.61 ± 0.32
32.28 K | 54.42 ± 0.34
33.12 K | 56.24 ± 0.35
35 K | 60.18 ± 0.37
35.01 K | 60.28 ± 0.37
36.91 K | 64.15 ± 0.39
38.82 K | 68 ± 0.41
40 K | 70.37 ± 0.43
40.72 K | 71.74 ± 0.43
42.73 K | 75.61 ± 0.45
44.84 K | 79.65 ± 0.48
45 K | 79.98 ± 0.48
46.95 K | 83.58 ± 0.5
49.06 K | 87.43 ± 0.52
50 K | 89 ± 0.53
51.17 K | 91.07 ± 0.54
53.29 K | 94.63 ± 0.55
55.41 K | 98.01 ± 0.57
57.53 K | 101.3 ± 0.6
59.66 K | 104.5 ± 0.6
60 K | 105.1 ± 0.6
61.79 K | 107.7 ± 0.6
63.92 K | 110.7 ± 0.6
66.06 K | 113.7 ± 0.7
68.21 K | 116.6 ± 0.7
70 K | 119 ± 0.7
70.35 K | 119.5 ± 0.7
72.59 K | 122.4 ± 0.7
74.94 K | 125.3 ± 0.7
77.3 K | 128.3 ± 0.7
79.66 K | 131.2 ± 0.8
80 K | 131.5 ± 0.7
80.4 K | 132.1 ± 0.8
82.02 K | 133.9 ± 0.8
82.22 K | 134.2 ± 0.8
84.05 K | 136.2 ± 0.8
84.39 K | 136.7 ± 0.8
85.88 K | 138.3 ± 0.8
87.71 K | 140.4 ± 0.8
89.54 K | 142.4 ± 0.8
90 K | 143 ± 0.8
91.38 K | 144.4 ± 0.8
93.22 K | 146.5 ± 0.8
95.06 K | 148.5 ± 0.8
96.91 K | 150.4 ± 0.8
98.76 K | 152.4 ± 0.8
100 K | 153.7 ± 0.8
100.61 K | 154.3 ± 0.8
102.46 K | 156.2 ± 0.9
104.31 K | 158 ± 0.9
106.16 K | 159.9 ± 0.9
108.05 K | 161.9 ± 0.9
109.91 K | 163.7 ± 0.9
110 K | 163.7 ± 0.9
111.77 K | 165.5 ± 0.9
113.63 K | 167.3 ± 0.9
115.49 K | 169.2 ± 0.9
117.36 K | 171 ± 0.9
119.23 K | 172.8 ± 0.9
120 K | 173.5 ± 0.9
121.1 K | 174.6 ± 0.9
122.98 K | 176.4 ± 1
124.42 K | 177.8 ± 1
124.85 K | 178.2 ± 1
126.41 K | 179.7 ± 1
126.73 K | 180 ± 1
128.28 K | 181.4 ± 1
128.61 K | 181.8 ± 1
130 K | 183.1 ± 1
130.16 K | 183.3 ± 1
130.5 K | 183.6 ± 1
132.03 K | 185.1 ± 1
132.38 K | 185.4 ± 1
133.91 K | 186.9 ± 1
134.27 K | 187.2 ± 1
135.79 K | 188.7 ± 1
136.16 K | 189.1 ± 1
137.67 K | 190.6 ± 1
138.05 K | 190.9 ± 1
139.55 K | 192.4 ± 1
139.95 K | 192.7 ± 1
140 K | 192.8 ± 1.1
141.43 K | 194.2 ± 1
141.84 K | 194.5 ± 1
143.31 K | 196 ± 1
143.74 K | 196.4 ± 1.1
145.19 K | 197.9 ± 1.1
145.64 K | 198.2 ± 1.1
147.07 K | 199.7 ± 1.1
147.53 K | 200.1 ± 1.1
148.95 K | 201.6 ± 1.1
149.43 K | 202 ± 1.1
150 K | 202.6 ± 1.1
150.83 K | 203.5 ± 1.1
151.33 K | 203.9 ± 1.1
152.71 K | 205.3 ± 1.1
153.23 K | 205.8 ± 1.1
154.59 K | 207.2 ± 1.1
155.13 K | 207.8 ± 1.1
155.16 K | 207.7 ± 1.1
156.47 K | 209.1 ± 1.1
157.04 K | 209.7 ± 1.1
157.27 K | 209.9 ± 1.1
158.34 K | 211.1 ± 1.1
158.94 K | 211.7 ± 1.1
159.27 K | 212 ± 1.1
160 K | 212.7 ± 1.2
160.22 K | 213.1 ± 1.1
160.84 K | 213.8 ± 1.1
161.27 K | 214.3 ± 1.1
162.09 K | 215 ± 1.1
162.75 K | 215.8 ± 1.1
163.26 K | 216.4 ± 1.1
163.96 K | 217.2 ± 1.2
164.67 K | 217.8 ± 1.2
165.26 K | 218.6 ± 1.2
165.83 K | 219.3 ± 1.2
166.58 K | 220.1 ± 1.2
167.25 K | 221 ± 1.2
167.7 K | 221.5 ± 1.2
168.51 K | 222.3 ± 1.2
169.24 K | 223.4 ± 1.2
169.57 K | 223.8 ± 1.2
170 K | 224.3 ± 1.2
170.43 K | 224.8 ± 1.2
171.36 K | 226.2 ± 1.2
171.44 K | 226.5 ± 1.2
172.36 K | 227.7 ± 1.2
173.31 K | 229.1 ± 1.2
173.44 K | 229.3 ± 1.2
174.29 K | 230.5 ± 1.2
175.18 K | 232 ± 1.2
175.43 K | 232.4 ± 1.2
176.22 K | 233.7 ± 1.2
177.04 K | 235.4 ± 1.2
177.41 K | 236.3 ± 1.2
178.16 K | 237.7 ± 1.3
178.9 K | 239.4 ± 1.3
179.39 K | 240.8 ± 1.3
180 K | 242.6 ± 1.3
180.1 K | 242.9 ± 1.3
